Results on two compounds are retold here after patent US20180228894A1, “INHIBITION OF CXCR4 SIGNALING IN CANCER IMMUNOTHERAPY” (Cambridge Enterprise Limited, priority 2013, published 2018).

Assay [1] deals with autochthonous mouse pancreatic tumors (KPC model). Nature of the assay: In vitro T cell exclusion assay: vibratome sections of KPC pancreatic tumors overlaid with activated T cells. It is filed as cell-based. The following applies: culture in the presence of the substance, 37° C. for up to 120 min. The text has this: This assay tests the mechanism of T cell exclusion from the vicinity of the cancer cells. It also allows screening of drugs and tumors for potential efficacy. This in vitro assay may also be used to screen other drugs (anti-CXCL12, anti-CXCR4, other CXCR4-directed small molecules) that may interfere with the CXCL12/CXCR4 interaction.
300 um vibratome sections of fresh autochthonous mouse pancreatic tumors (the mouse KPC model of Hingorani et al., Cancer Cell 2005) are overlaid with labeled mouse splenic T cells that have been activated in vitro for several days with anti-CD3 and IL-2 (this generates a T cell population that is like the effector T cells that normally infiltrate inflamed tissues/tumors). The tumor tissue+labeled T cells are then cultured at 37° C. for up to 120 min, after which the non-infiltrated T cells are washed off. The vibratome sections are then fixed for staining (p53 which identifies cancer cells) and SHG (to visualize collagen/stromal regions) by confocal microscopy.

The test system of assay [2] is PDA. Nature of the assay: PDA tumor volume by ultrasound in KPC / KPCD mice, 6 day treatment. It is filed as in vivo, mouse. The method, then: (§1) All experiments were performed in accordance with institutional guidelines and were approved by the UK Home Office and the animal ethics committee of CRUK and the University of Cambridge. Mice were housed at a 12-hour light/12-hour dark cycle and received diet and water ad libitum. The generation of LSL-[…]; LSL10 Tp53R172H/+; Pdx-1-Cre (KPC) and FAP-DTR BAC transgenic mice has been described previously (8, 10). These strains were crossed to generate KPCD (Kras; p53; Cre; DTR) mice. KPC and KPCD mice were screened for tumors from an age of 60 days by abdominal palpation. Tumors were verified by high-resolution ultrasound (Vevo 2100, VisualSonics). Mice with average tumor diameters between 5-8 mm (corresponding to approx. 200 mm3 volume) were enrolled on 6 day treatment studies with 2 follow-up tumor size measurements (day 3 and 6). Where possible, tumors were assessed at multiple angles and the volumes averaged. KPC(−/+DTR Tg) mice were treated every 48 h with 25 ng/g DTx (List Biologicals) in PBS, […] α-PD1 (10F.9G2, Biolegend), 100 μg α-CTLA-4 (9H10, Biolegend) or isotype control antibody by intraperitoneal injection. […] For T-cell depletion studies mice received […] each of α-CD4 (GK1.5, Biolegend) and α-CD8α (53-6.7, Bioloegend) or respective isotype control antibodies for 3 consecutive […] before treatment start and on days 2 and 5 during the course of treatment via intraperitoneal injection.

Assay [3] relates to LL2/OVA tumors. Particulars: AMD3100 30 mg/ml osmotic pump; C57BL/6 and Rag2−/− mice. As to the method: C57BL/6 were purchased from Charles River UK and Rag2−/− mice were bred at the local establishment. 2×10^5 LL2/OVA cells were injected subcutaneously in RPMI with 1% heat inactivated mouse serum. Tumor sizes were measured using calipers, measuring the long (L) and short (S) dimension, and tumor volumes were calculated using the equation: volume=(L×S2)/2.

For assay [4], the system named is PDA. Nature of the assay: Immunofluorescent confocal microscopy / ARIOL scanning of KPC tumor sections after treatment. It is filed as in vivo, mouse. The method, then:
as §1
5 μm frozen tissue sections were fixed in 4% paraformaldehyde (PFA) for 10 minutes at room temperature. Slides were blocked for one hour in 10% donkey serum (Sigma Aldrich)/0.2% Triton x-100. Primary antibodies were incubated overnight at 4° C. Following washing, slides were incubated for one hour at room temperature with appropriate secondary antibody and DAPI counterstain. Slides were subsequently incubated in 0.3M glycine for 10 minutes to reduce autofluorescence and mounted in Hydromount aqueous mounting medium (Fisher Scientific). Images were acquired on a Leica SP5 tandem confocal microscope. For analysis of p53 and Treg staining slides were scanned and analyzed using the automated ARIOL XT system.

[5] abbreviates: AMD3100 in combination with α-PD-L1, 24 h treatment.

“Also recorded” adds a separate entry of the source.

As for `c1cc(CN2CCCNCCNCCCNCC2)ccc1CN1CCCNCCNCCCNCC1` [AMD3100, 1,1′-[1,4-phenylenebis(methylene)]bis [1,4,8,11-tetraazacyclotetradecane]], in assay [1], the “Localization of T cells in tumor sections” value was “T cells to be found in both stromal and cancer cell regions”. Moreover, the Tumor growth result in assay [2] (AMD3100 by osmotic pump, presence or absence of depleting antibodies to CD4+ and CD8+ T cells) was “slowed by AMD3100 in a T cell-dependent manner”. Moreover, in assay [2] (higher dose AMD3100 in combination with α-PD-L1, by 48 h, maintained for 6 days), the “Decline in PDA volume” value came out at 15%. In addition, the PDA growth result in assay [2] (higher dose of AMD3100 (osmotic pump)) was “almost completely arrested PDA growth”. For the same compound, the “Interaction of AMD3100 with α-PD-L1” value in assay [2] (murine PDA, combination) was “remarkable synergistic interaction”. Besides, in assay [3], the “Control of subcutaneous LL2 tumors (tumor volume)” value was “T cell-dependent control of subcutaneous immunogenic LL2 tumors”. The “Composition of residual tumors” value was “comprised of premalignant CK19+ epithelial cells and CD45+ inflammatory cells” in assay [4] (AMD3100 alone, ARIOL scanning); “comprised of premalignant CK19+ epithelial cells and CD45+ inflammatory cells” in assay [4] (AMD3100 with α-PD-L1, ARIOL scanning). Also, the “Proliferating Ki67+ cells” value in assay [4] (AMD3100 and anti-PD-L1, 6 days (FIG. 11, panel E)) is “diminution in proliferating Ki67+ cells”. For the same compound, the “Foxp3+ cells in the tumors” value in assay [4] (AMD3100 high in combination with α-PD-L1, 24 h) is listed as “increase”. Moreover, the “Accumulation of T cells amongst cancer cells” value was “amplified this effect; also recorded: induce the accumulation of CD3+ T cells in cancer-cell-containing regions of PDA” in assay [4] (setting [5]) and “increased the accumulation of T cells; also recorded: exclusion is overcome” in assay [4] (single agent, 24 h treatment). The “Frequency of p53+ LOH cancer cells” value in assay [4] (setting [5]) is listed as “decreased the frequency of p53+ LOH cells; also recorded: loss of cancer cells”. Moreover, the “Presence of p53+ LOH cancer cells in tumors” value was “rare” in assay [4] (AMD3100 with α-PD-L1, after 6 days of treatment) and “rare” in assay [4] (single agent, after 6 days of treatment).

As to Z-VAD, the “Localization of T cells in tumor sections” value in assay [1] is “T cells accumulating also amongst cancer cells”.
